The text below walks through data of publication PMC5955586, “Transport of enniatin B and enniatin B1 across the blood-brain barrier and hints for neurotoxic effects in cerebral cells” (PLoS ONE, 2018).

In one data set the test system is PBCEC monolayer. Kind of data set: Transfer across PBCEC monolayer on Transwell filters (BBB model). It is filed as in vitro ADME, porcine.
On the set-up of data set [1]: method as in PMID 27349679. To be noted: mice; cited from earlier work.
A further data set has as its system HT-29. Set-up: method as in PMID 21640785. To be noted: HT-29, 48 h; cited from earlier work.
For a further data set, the system named is HepG2. The arrangement: method as in PMID 21640785. As to conditions: cited from earlier work.
The subject of the next data set is Caco-2. To be noted: cited from earlier work; for absorption: Caco-2, 4 h exposure; for duodenal bioavailability in vitro: Caco-2 model, 48 h.
A short description of data set [2]: Pig feeding study, plasma concentration. It is filed as in vivo. As to conditions: worst case contamination 5.8 mg/kg ENN B, 18.3 mg/kg ENN B1.
On the set-up of data set [3]: method as in PMID 23598119. As to conditions: oral intake 0.05 mg/kg b.w.; cited from earlier work.
For a further data set, the system named is HBMEC. Kind of data set: CCK-8 viability assay in HBMEC. The format is cell-based, human. To be noted: 0.1 μM to 10 μM, 48 h. The method, then: To test the viability and to define the working range for later transport studies ENN B/ENN B1 stock solutions in ACN were diluted to the respective concentrations with serum free culture medium (1% ACN). An astrocytoma cell line, CCF-STTG1 (ATCC, Manassas, USA), and HBMEC cell line (human brain microvascular endothelial cells, kindly provided by Prof. Dr. Karch, Institute of Hygiene, University of Muenster (WWU Muenster)) were cultivated in RPMI 1640 medium supplemented with 100 U/mL penicillin, 100 μg/mL streptomycin, 2 mM L-glutamine and 10% (v/v) fetal calf serum (FCS) (medium for HBMEC additionally supplemented with 1 mM Na-pyruvate) using standardized culture conditions (37°C, 5% CO2, saturated humidified atmosphere). Culture medium was changed every 2–3 d, and the cells were subcultivated after trypsination when they reached a microscopic confluence of approximately 80%. […]
Briefly, the cells were seeded in 96-well tissue culture plates in a density of 1 × 10^4 cells/well (CCF-STTG1) and 4 × 10^3 cells/well (HBMEC), respectively. […] WST-8 dye is reduced to a water-soluble formazan by cellular dehydrogenases of viable cells, which increases the absorbance at λ = 457 nm and was measured with an Infinite M200 PRO microplate reader with Tecan i-control software version 1.7.1.12 (Tecan, Crailsheim, Germany). […]
Background: Tetrazolium assays rely on reduction of a dye to a coloured formazan, in cell work by metabolically active cells.

For the next data set, the system named is CCF-STTG1 cells. Kind of data set: LDH leakage in CCF-STTG1. It is filed as cell-based, human. To be noted: CCF-STTG1, 0.1 to 2.5 μM, 48 h. The method, then: For measurement of lactate dehydrogenase (LDH) leakage, cell lysates and treatment solutions (serum free medium with respective ENN B/B1 content) after incubation for 48 h were used. The cell lysates were prepared as described for caspase-3 activation assay. To determine the LDH activity, 15 μL of the lysate and 40 μL of the incubation medium were each added to 200 μL substrate buffer (100 mM HEPES, 10 mM sodium pyruvate and 0.21 mM NADH, adjusted to pH 7.0), incubated over the course of 30 min at 37°C and absorption was measured every 2 min at 355 nm in a Infinite M200 PRO microplate reader (Tecan, Crailsheim, Germany).
On the technique in general: LDH leaks from cells whose membrane has failed.

Details of data set [4]: method as in PMID 24239892. To be noted: pigs, cited from earlier work.
Details of data set [5]: method as in PMID 21622627. As to conditions: liver microsomes human, dog and rat; cited from earlier work. (In general: Liver microsomes are vesicles of endoplasmic reticulum, rich in cytochrome P450 enzymes.)
Details of data set [6]: method as in PMID 25757886. As to conditions: ex vivo human skin; cited from earlier work.

Each structure is given as a SMILES string. Values joined by “and” are separate entries in the source; they are usually repeats but may differ in a detail not shown here. Equal entries are not always repeated. Where two headings read alike, the source gives them in different places.

For orientation: IC50 means the concentration at which inhibition is half-maximal. By Tmax is commonly meant the time from dosing to the highest level. On to `CC[C@H](C)[C@H]1C(=O)O[C@H](C(C)C)C(=O)N(C)[C@@H](C(C)C)C(=O)O[C@H](C(C)C)C(=O)N(C)[C@@H](C(C)C)C(=O)O[C@H](C(C)C)C(=O)N1C` [ENN B1, enniatin B1], for which, in the data set with PBCEC monolayer, the “metabolites by high resolution mass spectrometry screening” value is listed as “no metabolites were detected”. In addition, in [1], the “brain tissue distribution in the parenchyma” value is 95% and the “remaining in the capillaries” value is recorded as 5%. Also, the IC50 with HT-29 was 3.7 µM. The IC50 in the data set on HepG2 (read-out: IC50) is 8.5 µM. Also, in the data set with Caco-2, the absorption was over 65% and the “duodenal bioavailability in vitro” value is over 50%. Besides, in [2], the theoretical plasma levels is 0.641 μg/mL and 0.980 μM. Also, in data set [3], the “concentration in pig plasma” value was 0.035 μg/mL and 0.054 μM. The “effect on viability compared to solvent control” value with HBMEC was “no effect on viability”. For the same molecule, the LDH release result with CCF-STTG1 cells is reported as “no significant increase of LDH release”. Moreover, in data set [4] (oral), the Tmax was 14.4 min and the ka was 4.66 h⁻¹. In addition, the oral bioavailability result in data set [4] was “up to 91%”.

Regarding `CC(C)[C@H]1C(=O)O[C@H](C(C)C)C(=O)N(C)[C@@H](C(C)C)C(=O)O[C@H](C(C)C)C(=O)N(C)[C@@H](C(C)C)C(=O)O[C@H](C(C)C)C(=O)N1C` [ENN B, enniatin B], the metabolites formed entry in [5] is given as “several phase I metabolites”. Also, the “permeation kp,v” value in [6] is 0.00262 ×10⁻⁶ cm/s. Moreover, in data set [1], the “brain tissue distribution in the parenchyma” value is recorded as 95% and the “remaining in the capillaries” value was 5%. Further, the IC50 in the data set on HT-29 was 2.8 µM. In addition, the IC50 result with HepG2 is given as “no IC50 could be calculated”. Moreover, in the data set with Caco-2, the absorption is over 65% and the “duodenal bioavailability in vitro” value is given as over 50%. For the same molecule, in data set [2], the theoretical plasma levels was 0.423 μg/mL and 0.662 μM. The “concentration in pig plasma” value in data set [3] was 0.073 μg/mL and 0.114 μM. Further, the “effect on viability compared to solvent control” value in the data set on HBMEC is given as “no effect on viability”. Moreover, the LDH release entry in the data set with CCF-STTG1 cells is “no significant increase of LDH release”.
